In PMC6847993 (Drug Design, Development and Therapy, 2019):

target: XLF (Homo sapiens, UniProt Q9H9Q4); assay: Thermoshift assay of XLF stability in cells; format: cell-based
Sequence (Q9H9Q4 whole entry): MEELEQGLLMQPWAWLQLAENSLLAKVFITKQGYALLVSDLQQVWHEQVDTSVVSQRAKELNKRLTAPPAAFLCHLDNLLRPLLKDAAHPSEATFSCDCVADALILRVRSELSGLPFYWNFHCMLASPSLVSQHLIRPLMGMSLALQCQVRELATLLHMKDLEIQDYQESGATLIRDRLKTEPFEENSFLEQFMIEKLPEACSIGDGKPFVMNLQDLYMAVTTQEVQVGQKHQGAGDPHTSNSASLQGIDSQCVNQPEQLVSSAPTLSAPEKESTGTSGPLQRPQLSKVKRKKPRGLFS

Interaction with XLF (XLF stability), interacted with XLF:
COc1cc(O)cc(CCc2ccc(O)c(OC)c2)c1 [Gigantol, gigantol]
Oc1ccc(/C=C/c2cc(O)cc(O)c2)cc1 [resveratrol]
CC[C@]1(O)C[C@H]2CN(CCc3c([nH]c4ccccc34)[C@@](C(=O)OC)(c3cc4c(cc3OC)N(C=O)[C@H]3[C@@](O)(C(=O)OC)[C@H](OC(C)=O)[C@]5(CC)C=CCN6CC[C@]43[C@@H]65)C2)C1 [vincristine]
